Test [1] concerns PAF-induced Bronchoconstriction. The experiment in a line: PAF Induced Bronchoconstriction Assay. The class given is in vivo. As to conditions: guinea pig, ± standard error of the mean; for Percent Inhib. of PAF-induced Bronchoconstriction, 1 mg/Kg i.v.: 1 minute pretreatment, PAF 1.0 μg/kg i.v.; for Percent Inhib. of PAF-induced Bronchoconstriction, 50 mg/Kg p.o.: 2-hour pretreatment, PAF i.v. How it is done:
PAF Induced Bronchoconstriction Assay
Male animals (Hartlet Strain, 400-500 g) were anesthetized with urethane (2 g/kg, i.p.). Each animals' trachea was cannulated and the guinea pigs were respirated using a Harvard small animal rodent respirator (3.0 cc stroke volume, 40 breaths per min.). Tracheal pressure was recorded from a cannula inserted in the trachea and connected to a Statham Pressure Transducer.
The jugular vein was cannulated for administering compounds. Spontaneous breathing was arrested with succinylcholine (1.2 mg/kg, i.v.) administered 2 minutes prior to intravenous injection of platelet activating factor (PAF).
For, the intravenous testing, the guinea pig is given a 5-minute pretreatment with propranolol at a dose of 0.1 mg/kg intravenously. The test compound is administered with a 1 minute pretreatment prior to intravenous challenge with PAF. The animal is then challenged with a 1.0 μg/kg intravenous dose of PAF and the change is tracheal pressure is measured.
For the oral testing, the procedure includes a 2-hour pretreatment period with the test compound administered through an oral gavage tube. Propranolol or succinylcholine and PAF are administered intravenously, and the change in tracheal pressure measured.
The change is tracheal pressure is determined by subtracting the steady state baseline achieved after administration of succinylcholine from the peak bronchoconstriction seen after challenge with PAF. The mean is calculated for each test compound and compared to the mean of the control animals to give the percent inhibition of bronchoconstriction. The standard error is calculated as the standard error of the mean.

In the next test the test system is dog platelets. The experiment in a line: Binding assay: inhibition of 3H-PAF binding to dog platelets. To be noted: 10 minutes at room temperature. As to the method: The binding assay was done in 400 μl polyethylene microcentrifuge tubes (Beckman) containing 50 μl of an oil mixture of 2 parts Siliconol AR200 (Serva): 1 part Silicone Fluid (Arthur H. Thomas). Buffer, standards, or analogs (150 μl total volume) were added to the tubes. Radiolabelled ^3 H-PAF (50 μl) was then added to the tubes. The reaction was started by the addition of 50 μl of dog platelets (2×10^7 platelets). The tubes were capped, inverted several times to mix, and incubated for 10 minutes at room temperature. The platelets were separated from the incubation mixture by centrifuging 1 minute in a Beckman Microfuge B centrifuge. The tip of the microfuge tube was cut off, and the platelets were washed out of the tip with 200 μl of 50% methanol (Burdick and Jackson). Aquasol (NEN, 10 ml) was added and the radioactivity in the samples was determined using an LS 8100 Beckman liquid scintillation counter linked to a Techtran tape recorder. Data was processed through an in-house computer system. Alternatively, radioactivity was determined using a Searle Mark III liquid scintillation counter linked to a Iso-Data microprocessor.
(b) Preparation of Platelets
Blood was collected from anesthesized or unanesthesized dogs into 50 ml plastic centrifuge tubes containing 3.8% sodium citrate as the anticoagulant (1 volume of citrate/9 volumes of blood). The red cells were removed by centrifugation for 15 minutes at 600 rpm (100-125 g) at room temperature. An aliquot of the supernatant platelet rich plasma (PRP) was saved for cell counting and the remainder was acidified by pH 6.5 with 0.15M citric acid. The platelet pellet was obtained after a 10 minute centrifugation at 2000 rpm (1000 g) at room temperature. Washed platelets were prepared by resuspending the platelet pellet once with PBS containing 1 mM EDTA, centrifuging as noted, and then resuspending the platelets in 0.1% BSA-PBS. An aliquot of the washed platelets was counted. Platelets used for binding assays were diluted to 2×10^7 platelets/assay tube (4×10^8 platelets/ml). Platelet counting was done using a Royco Cell-Crit 921.

Results on 25 compounds are retold here after patent publication US4927826A, “Cycloproylpropenamides useful as platelet activing factor (PAF) antagonists” (Hoffman-La Roche Inc., priority 1988, dated 1990).

As a reminder, the IC50 is the midpoint of a concentration-inhibition curve. Higher therefore signals lower potency. For `O=C(/C=C/[C@H]1CC1(c1ccc(F)cc1)c1ccc(F)cc1)NCCCCc1cccnc1` [[R-(E)]-3-[2,2-bis(4-Fluorophenyl)cyclopropyl]-N-[4-(3-pyridinyl)butyl]-2-propenamide], in test [1], the “Percent Inhib. of PAF-induced Bronchoconstriction, 1 mg/Kg i.v.” value is given as 13 ± 11% and the “Percent Inhib. of PAF-induced Bronchoconstriction, 50 mg/Kg p.o.” value is reported as 83 ± 31%. Also, the half-inhibitory concentration (IC50) with dog platelets stood at 200 nM.
As to `O=C(CCC1CC1(c1ccccc1)c1ccccc1)NCCCCc1cccnc1` (racemic) [(R,S)-2,2-Diphenyl-N-[4-(3-pyridinyl)butyl]cyclopropanepropanamide], in the test on dog platelets, the 50% inhibitory concentration (IC50) came out at 300 nM.
As for `O=C(/C=C/C1CC1(c1ccc(F)cc1)c1ccc(F)cc1)NCCCCc1cccnc1` (racemic) [[R,S-(E)]-3-[2,2-bis(4-Fluorophenyl)cyclopropyl]-N-[4-(3-pyridinyl)butyl]-2-propenamide], in test [1], the “Percent Inhib. of PAF-induced Bronchoconstriction, 1 mg/Kg i.v.” value stood at 20 ± 8% and the “Percent Inhib. of PAF-induced Bronchoconstriction, 50 mg/Kg p.o.” value worked out at 82 ± 5%. The same compound gave an IC50 with dog platelets of 100 nM.
For the compound `CC1(/C=C/C(=O)NCCCCc2cccnc2)CC1(c1ccc(F)cc1)c1ccc(F)cc1` (racemic) [[R,S-(E)]-3-[2,2-bis(4-Fluorophenyl)-1-methylcyclopropyl]-N-[4-(3-pyridinyl)butyl]-2-propenamide], in the test on dog platelets, the IC50 was 300 nM. This counts as sub-micromolar.
Same read-out and setting: to `O=C(/C=C\[C@H]1CC1(c1ccccc1)c1ccccc1)NCCCCc1cccnc1` [[R-(Z)]-3-(2,2-Diphenylcyclopropyl)-N-[4-(3-pyridinyl)butyl]-2-propenamide] belongs 100 nM.
As to `O=C(/C=C\C1CC1(c1ccc(F)cc1)c1ccc(F)cc1)NCCCCc1cccnc1` (racemic) [[R,S-(Z)]-3-[2,2-bis(4-Fluorophenyl)cyclopropyl]-N-[4-[3-pyridinyl)butyl]-2-propenamide], the “Percent Inhib. of PAF-induced Bronchoconstriction, 50 mg/Kg p.o.” value in test [1] turned out to be 78 ± 11%. In the test with dog platelets, this compound returned an IC50 of 1000 nM.
For `C[C@@]1(/C=C/C(=O)NCCCCc2cccnc2)CC1(c1ccc(F)cc1)c1ccc(F)cc1` [[S-(E)]-3-[2,2-bis(4-Fluorophenyl)-1-methylcyclopropyl]-N-[4-(3-pyridinyl)butyl]-2-propenamide], in the test on dog platelets, the IC50 turned out to be 200 nM.
Turning to `COc1cccc(C2(c3cccc(OC)c3)C[C@H]2/C=C/C(=O)NCCCCc2cccnc2)c1` [[S-(E)]-3-[2,2-bis(3-Methoxyphenyl)cyclopropyl]-N-[4-(3-pyridinyl)butyl]-2-propenamide], the “Percent Inhib. of PAF-induced Bronchoconstriction, 1 mg/Kg i.v.” value in test [1] came to 25 ± 8%. In addition, the IC50 with dog platelets turned out to be 36 nM.
For the compound `O=C(/C=C\C1CC1(c1ccccc1)c1ccccc1)NCCCCc1cccnc1` (racemic) [[R,S-(Z)]-3-(2,2-Diphenylcyclopropyl)-N-[4-(3-pyridinyl)butyl]-2-propenamide], the IC50 in the test with dog platelets was 650 nM.
In the test with dog platelets, `O=C(CC[C@H]1CC1(c1ccccc1)c1ccccc1)NCCCCc1cccnc1` [(S)-2,2-Diphenyl-N-[4-(3-pyridinyl)butyl]cyclopropanepropanamide] registered a half-maximal inhibitory concentration (IC50) of 200 nM.
Still for that read-out and setting: to `O=C(/C=C\[C@@H]1CC1(c1ccccc1)c1ccccc1)NCCCCc1cccnc1` [[S-(Z)]-3-(2,2-Diphenylcyclopropyl)-N-[4-(3-pyridinyl)butyl]-2-propenamide] belongs 1000 nM.
As for `O=C(/C=C/[C@H]1CC1(c1cccc(F)c1)c1cccc(F)c1)NCCCCc1cccnc1` [[R-(E)]-3-[2,2-bis(3-Fluorophenyl)cyclopropyl]-N-[4-(3-pyridinyl)butyl]-2-propenamide], in test [1], the “Percent Inhib. of PAF-induced Bronchoconstriction, 1 mg/Kg i.v.” value is 29 ± 3% and the “Percent Inhib. of PAF-induced Bronchoconstriction, 50 mg/Kg p.o.” value is recorded as 10 ± 13%. Moreover, the IC50 in the test on dog platelets turned out to be 200 nM.
With `C[C@H](CCCc1cccnc1)NC(=O)/C=C/[C@@H]1CC1(c1ccc(F)cc1)c1ccc(F)cc1` (relative stereo) [[S,R*-(E)]-3-[2,2-bis(4-Fluorophenyl)cyclopropyl]-N-[1-methyl-4-(3-pyridinyl)butyl]-2-propenamide], the IC50 in the test with dog platelets turned out to be 450 nM.
In the case of `COc1cccc(C2(c3cccc(OC)c3)C[C@@H]2/C=C/C(=O)NCCCCc2cccnc2)c1` [[R-(E)]-3-[2,2-bis(3-Methoxyphenyl)cyclopropyl]-N-[4-(3-pyridinyl)butyl]-2-propenamide], in test [1], the “Percent Inhib. of PAF-induced Bronchoconstriction, 1 mg/Kg i.v.” value is given as 8 ± 5% and the “Percent Inhib. of PAF-induced Bronchoconstriction, 50 mg/Kg p.o.” value was 8 ± 2%. The compound also yielded an IC50 in the test with dog platelets of 300 nM.
In the test with dog platelets, `O=C(CC[C@@H]1CC1(c1ccccc1)c1ccccc1)NCCCCc1cccnc1` [(R)-2,2-Diphenyl-N-[4-(3-pyridinyl)butyl]cyclopropanepropanamide] yielded an IC50 of 600 nM.
On the same count and under the same terms, to `COc1cccc([C@]2(c3ccccc3)C[C@@H]2/C=C/C(=O)NCCCCc2cccnc2)c1` (relative stereo) [[1(R,S),2(R,S)-(E)]-3-[[2-(3-Methoxyphenyl)-2-phenyl]cyclopropyl]-N-[4-(3-pyridinyl)butyl]-2-propenamide] belongs 8 nM.
`O=C(/C=C/[C@@H]1CC1(c1ccc(F)cc1)c1ccc(F)cc1)NCCCCc1cccnc1` [[S-(E)]-3-[2,2-bis(4-Fluorophenyl)cyclopropyl]-N-[4-(3-pyridinyl)butyl]-2-propenamide]: in test [1], the “Percent Inhib. of PAF-induced Bronchoconstriction, 1 mg/Kg i.v.” value stood at 33 ± 7% and the “Percent Inhib. of PAF-induced Bronchoconstriction, 50 mg/Kg p.o.” value is recorded as 62 ± 13%. In the test with dog platelets, this compound registered an IC50 of 25 nM.
For the compound `COc1cccc(C2(c3cccc(OC)c3)CC2/C=C/C(=O)NCCCCc2cccnc2)c1` (racemic) [[R,S-(E)]-3-[2,2-bis(3-Methoxyphenyl)cyclopropyl]-N-[4-(3-pyridinyl)butyl]-2-propenamide], the “Percent Inhib. of PAF-induced Bronchoconstriction, 50 mg/Kg p.o.” value in test [1] amounted to 14 ± 1%. The same compound returned an IC50 with dog platelets of 70 nM.
With `S=C(/C=C/C1CC1(c1ccccc1)c1ccccc1)NCCCCc1cccnc1` (racemic) [(R,S)-(E)-3-(Diphenylcyclopropyl)-N-[4-(3-pyridinyl)butyl]-2-propenethioamide], the IC50 in the test on dog platelets turned out to be 55 nM. That is a double-digit nanomolar value.
Still for that read-out and setting: the figure for `COc1cccc([C@@]2(c3ccccc3)C[C@@H]2/C=C/C(=O)NCCCCc2cccnc2)c1` (relative stereo) [[1(R,S),2(S,R)-(E)]-3-[[2-(3-Methoxyphenyl)-2-phenyl]cyclopropyl]-N-[4-(3-pyridinyl)butyl]-2-propenamide] is 35 nM.
Still for that read-out and setting: the figure for `COc1cccc(C2(c3cccc(OC)c3)CC2/C=C/C(=O)NC(C)CCCc2cccnc2)c1` (stereo in doubt) [(S,R*)-(E)-3-[2,2-bis(3-Methoxyphenyl)cyclopropyl]-N-[1-methyl-4-(3-pyridinyl)butyl]-2-propenamide] is 450 nM.
As for `COc1cccc([C@]2(c3ccccc3)C[C@@H]2/C=C\C(=O)NCCCCc2cccnc2)c1` (relative stereo) [[1(R,S),2(R,S)-(Z)]-3-[[2-(3-Methoxyphenyl)-2-phenyl]cyclopropyl]-N-[4-(3-pyridinyl)butyl]-2-propenamide], the “Percent Inhib. of PAF-induced Bronchoconstriction, 50 mg/Kg p.o.” value in test [1] stood at 9 ± 14%. Besides, the IC50 in the test with dog platelets came out at 300 nM.
With `C[C@H](CCCc1cccnc1)NC(=O)/C=C/[C@@H]1CC1(c1cccc(F)c1)c1cccc(F)c1` (relative stereo) [[S,R*-(E)]-3-[2,2-bis(3-Fluorophenyl)cyclopropyl]-N-[1-methyl-4-(3-pyridinyl)butyl]-2-propenamide], the IC50 with dog platelets was determined as 130 nM. This counts as sub-micromolar.
Same read-out and setting: the figure for `C[C@]1(/C=C/C(=O)NCCCCc2cccnc2)CC1(c1ccc(F)cc1)c1ccc(F)cc1` [[R-(E)]-3-[2,2-bis(4-fluorophenyl)-1-methylcyclopropyl]-N-[4-(3-pyridinyl)butyl]-2-propenamide] is 500 nM; for `O=C(/C=C/C1CC1(c1cccc(C(F)(F)F)c1)c1cccc(C(F)(F)F)c1)NCCCCc1cccnc1` (racemic) [[R,S-(E)]-3-[2,2-bis[3-(trifluoromethyl)phenyl]cyclopropyl]-N-[4-(3-pyridinyl)butyl]-2-propenamide] it is 350 nM.
